Results as given in patent US20260317319A1, “NOVEL ERGOLINES AND METHODS OF TREATING MOOD DISORDERS” (Gilgamesh Pharma Inc., priority 2023, published 2026).
Values joined by “and” are separate entries in the source; they are usually repeats but may differ in a detail not shown here. Equal entries are not always repeated. Where two headings read alike, the source gives them in different places.

Assays:
5-HT1A receptor = molecular target: T1, 5-HT1A receptor (Homo sapiens, UniProt P08908); assay: cell-based; conditions: agonist, Ca2+ flux; for Emax: CHO, read-out: 5-HT1A % Act @ Max Dose; for EC50: CHO cells with Gα15
T1 construct: expressed in transfected cells; host or cells: CHO cells, stably transfected
T1 sequence (P08908 1-422): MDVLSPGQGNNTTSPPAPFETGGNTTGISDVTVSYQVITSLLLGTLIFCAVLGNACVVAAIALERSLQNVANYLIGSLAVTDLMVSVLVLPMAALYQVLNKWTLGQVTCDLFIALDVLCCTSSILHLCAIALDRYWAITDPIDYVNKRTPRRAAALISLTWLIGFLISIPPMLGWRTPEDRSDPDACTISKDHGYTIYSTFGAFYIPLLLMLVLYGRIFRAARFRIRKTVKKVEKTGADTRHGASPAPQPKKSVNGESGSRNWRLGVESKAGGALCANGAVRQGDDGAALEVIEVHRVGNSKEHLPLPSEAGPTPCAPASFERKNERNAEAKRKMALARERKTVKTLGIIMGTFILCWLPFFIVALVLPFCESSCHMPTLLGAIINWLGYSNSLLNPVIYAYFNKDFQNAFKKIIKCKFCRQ
Protocol: (§1) Functional Assays at 5-HT2A, 5-HT2B, and 5-HT1A. Agonist activity at 5-HT2A, 5-HT2B, 5HT2C and 5-HT1A receptors was determined using a FLIPR Ca^2+ flux assay at WuXi AppTec (Hong Kong) Limited according to their standard protocols. Briefly, stably transfected cells expressing the receptor of interest and Gα15 in the case of 5-HT1A (HEK293 for 5-HT2A and 5-HT2B; CHO cells for 5-HT1A) were grown and plated in a 384 well plate and incubated at 37° C. and 5% CO2 overnight. A solution of 250 mM probenecid in 1 mL FLIPR assay buffer was prepared fresh. This was combined with a fluorescent dye (Fluo-4 Direct™) to make a final assay concentration of 2.5 mM. […] The fluorescent dye was then added to the assay plate along with assay buffer to a final volume of 40 μL. The cell plate was incubated for 50 min at 37° C. and 5% CO2 and placed into the FLIPR Tetra along with the compound plate. 10 μL of references and compounds were then transferred from the compound plate into the cell plate and the fluorescent signal was read.

in vitro [1] = type: in vitro ADME, mouse; conditions: mouse, microsomes, MLM (male CD-1) 0.50 mg/mL, NADPH 1 mM, 1 μM compound, pH 7.4, 37° C., 60 min; for microsomal CLint: read-out: Intrinsic clearance (Clint); for half-life: read-out: half-life (t1/2)
From the text: MLM Stability Pooled MLM from male CD-1 mice (BIOIVT M00501) were used.

5-HT2B receptor = molecular target: T2, 5-HT2B receptor (Homo sapiens, UniProt P41595); assay: cell-based; type: cell-based; conditions: Ca2+ flux; for Emax: HEK293, agonist, HEK293, max dose, read-out: 5-HT2B % Act @ Max Dose; for EC50: agonist, HEK293
T2 construct: expressed in transfected cells; host or cells: HEK293, stably transfected
Protocol: as §1

in vitro [2] = type: in vitro ADME, rat; conditions: rat, microsomes, RLM (male Sprague-Dawley) 0.50 mg/mL, NADPH 1 mM, 1 μM compound, pH 7.4, 37° C., 60 min; for microsomal CLint: read-out: Intrinsic clearance (Clint); for half-life: read-out: half-life (t1/2)
From the text: RLM Stability Pooled RLM from male Sprague-Dawley rats (Xenotech R1000) were used.

5-HT2A receptor [3] = molecular target: T3, 5-HT2A receptor (Homo sapiens, UniProt P28223); assay: cell-based; type: cell-based; parameters: expressed in transfected cells; host or cells: HEK293, stably transfected; conditions: Ca2+ flux; for Emax: HEK293, agonist, read-out: 5-HT2A % Act @ Max Dose; for EC50: HEK293
Protocol: as §1

5-HT2A receptor [4] = molecular target: T3, 5-HT2A receptor; assay: biochemical; type: binding; parameters: expressed in transfected cells; host or cells: HEK293, stably transfected; conditions: [3H]ketanserin 1 nM; HEK293 stable cell line; 1 h, 25 °C
Protocol: Affinity of the test compounds for the 5-HT2A receptor was determined in radioligand binding experiments with [^3H]ketanserin by WuXi AppTec (Hong Kong) Limited, using methods adapted from the literature and under conditions described in Table 1.

in vitro [5] = type: in vitro ADME, human; conditions: human, microsomes, HLM 0.50 mg/mL, NADPH 1 mM, 1 μM compound, pH 7.4, 37° C., 60 min; for microsomal CLint: read-out: Intrinsic clearance (Clint); for half-life: read-out: half-life (t1/2)

T3 sequence (P28223 whole entry): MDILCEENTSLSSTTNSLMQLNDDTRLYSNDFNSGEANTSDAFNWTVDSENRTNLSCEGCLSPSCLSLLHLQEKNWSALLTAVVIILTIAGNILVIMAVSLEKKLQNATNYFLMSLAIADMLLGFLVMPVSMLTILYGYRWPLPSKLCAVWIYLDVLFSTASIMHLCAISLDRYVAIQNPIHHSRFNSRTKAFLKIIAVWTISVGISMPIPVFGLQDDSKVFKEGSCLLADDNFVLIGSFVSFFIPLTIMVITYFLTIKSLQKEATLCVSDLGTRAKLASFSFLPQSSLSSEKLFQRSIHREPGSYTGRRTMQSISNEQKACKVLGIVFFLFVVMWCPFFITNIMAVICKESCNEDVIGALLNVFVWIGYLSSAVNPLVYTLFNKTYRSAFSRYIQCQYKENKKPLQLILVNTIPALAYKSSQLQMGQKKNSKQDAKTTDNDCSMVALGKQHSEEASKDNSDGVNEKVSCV
T2 sequence (P41595 whole entry): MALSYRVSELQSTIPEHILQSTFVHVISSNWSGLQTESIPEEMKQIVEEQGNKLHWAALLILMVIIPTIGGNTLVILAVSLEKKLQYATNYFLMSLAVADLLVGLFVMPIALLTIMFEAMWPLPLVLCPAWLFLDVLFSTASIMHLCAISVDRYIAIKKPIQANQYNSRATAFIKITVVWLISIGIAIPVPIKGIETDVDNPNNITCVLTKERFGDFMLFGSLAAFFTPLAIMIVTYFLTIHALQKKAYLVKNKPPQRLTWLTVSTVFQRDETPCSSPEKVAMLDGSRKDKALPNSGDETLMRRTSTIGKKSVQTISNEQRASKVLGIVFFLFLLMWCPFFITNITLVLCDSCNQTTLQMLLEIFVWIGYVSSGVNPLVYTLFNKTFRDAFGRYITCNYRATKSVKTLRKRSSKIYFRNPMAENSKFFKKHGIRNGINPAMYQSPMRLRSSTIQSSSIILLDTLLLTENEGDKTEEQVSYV

SMILES | Emax (5-HT1A receptor; CHO cells with Gα15, max dose) [%] | EC50 (5-HT1A receptor) [nM] | microsomal CLint (in vitro [1]) [µL/min/mg] | half-life (in vitro [1]) [min] | Emax (5-HT2B receptor) [%] | EC50 (5-HT2B receptor) [nM] | microsomal CLint (in vitro [2]) [µL/min/mg] | half-life (in vitro [2]) [min] | Emax (5-HT2A receptor [3]; HEK293, max dose) [%] | EC50 (5-HT2A receptor [3]; agonist) | Ki (5-HT2A receptor [4]) [nM] | microsomal CLint (in vitro [5]) [µL/min/mg] | half-life (in vitro [5]) [min] | 5-HT1A % Act @ Max Dose (5-HT1A receptor; CHO cells with Gα15, max dose) | 5-HT2A % Act @ Max Dose (5-HT2A receptor [3]; agonist, HEK293, max dose)
C[C@H]1C[C@H](C)N1C(=O)[C@@H]1C=C2c3cccc4[nH]cc(c34)C[C@H]2N(Cc2ccccc2)C1 [Compound 87, ((6aR,9R)-7-benzyl-4,6,6a,7,8,9-hexahydroindolo[4,3-fg]quinolin-9-yl)((2S,4S)-2,4-dimethylazetidin-1-yl)methanone] | 58.2 | 54100 | 681 | 2 | 10 | > 3000 | 60.1 | 23 | 61.2 | 669 nM | 2.1 | 97.2 | 14.3 | – | –
O=C([C@@H]1C=C2c3cccc4[nH]cc(c34)C[C@H]2N(Cc2ccccc2)C1)N1CCCC1 [Compound 84, ((6aR,9R)-7-benzyl-4,6,6a,7,8,9-hexahydroindolo[4,3-fg]quinolin-9-yl)(pyrrolidin-1-yl)methanone] | 40.3 | 1690 | 146 | 9.5 | 5.16 | > 10000 | 101 | 13.7 | 68.9 | 895 nM | 17.8 | 89.7 | 15.5 | – | –
CCN(CC)C(=O)[C@@H]1C=C2c3cccc4[nH]cc(c34)C[C@H]2N(Cc2cccs2)C1 [Compound 104] | – | 730 | – | – | – | 731 | – | – | – | 844 nM | 1.42 | – | – | – | –
CCCN(CC)C(=O)[C@@H]1C=C2c3cccc4[nH]cc(c34)C[C@H]2N(Cc2cccc(OC)c2)C1 [Compound 93, (6aR,9R)—N-ethyl-7-(3-methoxybenzyl)-N-propyl-4,6,6a,7,8,9-hexahydroindolo[4,3-fg]quinoline-9-carboxamide] | 21.1 | > 100000 | 600 | 2.3 | 1.24 | > 10000 | 423 | 3.3 | 44.6 | 1200 nM | 4.73 | 152 | 9.1 | – | –
CCN(CC)C(=O)[C@@H]1C=C2c3cccc4[nH]cc(c34)C[C@H]2N(Cc2ncco2)C1 [Compound 74, (6aR,9R)—N,N-diethyl-7-(oxazol-2-ylmethyl)-4,6,6a,7,8,9-hexahydroindolo[4,3-fg]quinoline-9-carboxamide] | – | – | 83.3 | 16.6 | – | – | 71.7 | 19.3 | – | 289 nM and 54.3 nM | 52.5 | 45.5 | 30.5 | 51.28% and 82.73% | 63% and 89.01%
CCCN(CC)C(=O)[C@@H]1C=C2c3cccc4[nH]cc(c34)C[C@H]2N(Cc2ccccc2)C1 [Compound 86, (6aR,9R)-7-benzyl-N-ethyl-N-propyl-4,6,6a,7,8,9-hexahydroindolo[4,3-fg]quinoline-9-carboxamide] | 49.1 | 15500 | 380 | 3.6 | 7.82 | 1280 | 117 | 11.9 | 67 | 933 nM | 1.6 | 128 | 10.9 | – | –
COc1cccc(CN2C[C@H](C(=O)N3[C@@H](C)C[C@@H]3C)C=C3c4cccc5[nH]cc(c45)C[C@H]32)c1 [Compound 94, ((2S,4S)-2,4-dimethylazetidin-1-yl)((6aR,9R)-7-(3-methoxybenzyl)-4,6,6a,7,8,9-hexahydroindolo[4,3-fg]quinolin-9-yl)methanone] | 64.8 | > 100000 | 1340 | 1 | -1.21 | > 10000 | 352 | 3.9 | 30.4 | 792 nM | 13.7 | 116 | 11.9 | – | –
CCN(CC)C(=O)[C@H]1C=C2c3cccc4[nH]cc(c34)C[C@H]2N(Cc2ccc(C)cc2)C1 [Compound 97a, (6aR,9S)—N,N-diethyl-7-(4-methylbenzyl)-4,6,6a,7,8,9-hexahydroindolo[4,3-fg]quinoline-9-carboxamide] | – | – | – | – | – | – | – | – | – | > 1260 nM | > 1230 | – | – | – | –
CC[C@@H](C)NC(=O)[C@@H]1C=C2c3cccc4[nH]cc(c34)C[C@H]2N(Cc2cccc(OC)c2)C1 [Compound 95, (6aR,9R)—N—((R)-sec-butyl)-7-(3-methoxybenzyl)-4,6,6a,7,8,9-hexahydroindolo[4,3-fg]quinoline-9-carboxamide] | 63.2 | 42900 | 2020 | 0.7 | 0.13 | > 10000 | 1600 | 0.9 | 63.8 | 642 nM | 15.3 | 685 | 2 | – | –
CCN(CC)C(=O)[C@@H]1C=C2c3cccc4[nH]cc(c34)C[C@H]2N(Cc2cccc3ccccc23)C1 [Compound 101, (6aR,9R)—N,N-diethyl-7-(naphthalen-1-ylmethyl)-4,6,6a,7,8,9-hexahydroindolo[4,3-fg]quinoline-9-carboxamide] | 61.8 | 71100 | 483 | 2.9 | 11.7 | > 10000 | 525 | 2.6 | 86.5 | 271 nM | 24.5 | 84.6 | 16.4 | – | –
CCN(CC)C(=O)[C@@H]1C=C2c3cccc4[nH]cc(c34)C[C@H]2N(Cc2ccc3ccccc3c2)C1 [Compound 100, (6aR,9R)—N,N-diethyl-7-(naphthalen-2-ylmethyl)-4,6,6a,7,8,9-hexahydroindolo[4,3-fg]quinoline-9-carboxamide] | 68.4 | 20800 | 117 | 11.8 | 18.4 | > 10000 | 167 | 8.3 | 74.6 | 1080 nM | 3.84 | 43.9 | 31.6 | – | –
CCN(CC)C(=O)[C@H]1C=C2c3cccc4[nH]cc(c34)C[C@H]2N(CC2CCCCC2)C1 [Compound 89a, (6aR,9S)-7-(cyclohexylmethyl)-N,N-diethyl-4,6,6a,7,8,9-hexahydroindolo[4,3-fg]quinoline-9-carboxamide] | – | – | 743 | 1.9 | – | – | 304 | 4.6 | 3.92 | > 1000 nM | 208 | 91.5 | 15.2 | – | –
